{"source": "ChEMBL document CHEMBL6182926", "about": "“Design, Synthesis, and Biological Activity Evaluation of Deuterated Diphenyl Azole Alcohol-Based CYP51 Inhibitors” (J Med Chem, 2025)", "format_in_all_cases": "functional", "key": {"Candida albicans [1]": {"test_system": "Candida albicans", "test": "Antifungal activity against Candida albicans SC 5314 assessed as inhibition of visible growth"}, "Candida albicans [2]": {"test_system": "Candida albicans", "test": "Antifungal activity against Candida albicans CPCC 400616 assessed as inhibition of visible growth"}, "Candida tropicalis": {"test_system": "Candida tropicalis", "test": "Antifungal activity against Candida tropicalis CGMCC 2.3739 assessed as inhibition of visible growth"}, "Candida parapsilosis": {"test_system": "Candida parapsilosis", "test": "Antifungal activity against Candida parapsilosis GIM 2.190 assessed as inhibition of visible growth", "settings": "Lodderomyces parapsilosis"}, "Nakaseomyces glabratus": {"test_system": "Nakaseomyces glabratus", "test": "Antifungal activity against Clinical isolate Candida glabrata assessed as inhibition of visible growth"}, "Pichia kudriavzevii": {"test_system": "Pichia kudriavzevii", "test": "Antifungal activity against Candida krusei AS 2.1045 assessed as inhibition of visible growth"}, "Cryptococcus neoformans": {"test_system": "Cryptococcus neoformans", "test": "Antifungal activity against Cryptococcus neoformans CGMCC 2.3161 assessed as inhibition of visible growth"}}}
{"molecule": "CN(Cc1ccc(-c2cccc(F)c2)cn1)CC(O)(Cn1cncn1)c1ccc(F)cc1F", "note": "(stereo not given)", "values": [{"measurement": "MIC80", "setting": "Candida albicans [1]", "result": 0.025, "unit": "µg/mL"}, {"measurement": "MIC80", "setting": "Candida albicans [2]", "result": 0.025, "unit": "µg/mL"}, {"measurement": "MIC80", "setting": "Candida tropicalis", "result": 0.012, "unit": "µg/mL"}, {"measurement": "MIC80", "setting": "Candida parapsilosis", "result": 0.012, "unit": "µg/mL"}, {"measurement": "MIC80", "setting": "Nakaseomyces glabratus", "result": 0.8, "unit": "µg/mL"}, {"measurement": "MIC80", "setting": "Pichia kudriavzevii", "result": 0.2, "unit": "µg/mL"}, {"measurement": "MIC80", "setting": "Cryptococcus neoformans", "result": 0.05, "unit": "µg/mL"}]}
{"molecule": "C[C@@H](N(C)Cc1ccc(-c2ccc(Cl)cc2)cc1)[C@](O)(Cn1cncn1)c1ccc(F)cc1F", "values": [{"measurement": "MIC80", "setting": "Candida albicans [1]", "result": 0.006, "unit": "µg/mL"}, {"measurement": "MIC80", "setting": "Candida albicans [2]", "result": 0.006, "unit": "µg/mL"}, {"measurement": "MIC80", "setting": "Candida tropicalis", "result": 0.006, "unit": "µg/mL"}, {"measurement": "MIC80", "setting": "Candida parapsilosis", "result": 0.006, "unit": "µg/mL"}, {"measurement": "MIC80", "setting": "Nakaseomyces glabratus", "result": 0.012, "unit": "µg/mL"}, {"measurement": "MIC80", "setting": "Pichia kudriavzevii", "result": 0.012, "unit": "µg/mL"}, {"measurement": "MIC80", "setting": "Cryptococcus neoformans", "result": 0.012, "unit": "µg/mL"}]}
{"molecule": "CN(Cc1ccc(-c2ccc(Cl)cc2)cc1F)CC(O)(Cn1cncn1)c1ccc(F)cc1F", "note": "(stereo not given)", "values": [{"measurement": "MIC80", "setting": "Candida albicans [1]", "result": 0.006, "unit": "µg/mL"}, {"measurement": "MIC80", "setting": "Candida albicans [2]", "result": 0.006, "unit": "µg/mL"}, {"measurement": "MIC80", "setting": "Candida tropicalis", "result": 0.006, "unit": "µg/mL"}, {"measurement": "MIC80", "setting": "Candida parapsilosis", "result": 0.006, "unit": "µg/mL"}, {"measurement": "MIC80", "setting": "Nakaseomyces glabratus", "result": 0.025, "unit": "µg/mL"}, {"measurement": "MIC80", "setting": "Pichia kudriavzevii", "result": 0.025, "unit": "µg/mL"}, {"measurement": "MIC80", "setting": "Cryptococcus neoformans", "result": 0.012, "unit": "µg/mL"}]}
{"molecule": "CN(Cc1ccc(-c2cccc(Cl)c2)cn1)CC(O)(Cn1cncn1)c1ccc(F)cc1F", "note": "(stereo not given)", "values": [{"measurement": "MIC80", "setting": "Candida albicans [1]", "result": 0.012, "unit": "µg/mL"}, {"measurement": "MIC80", "setting": "Candida albicans [2]", "result": 0.012, "unit": "µg/mL"}, {"measurement": "MIC80", "setting": "Candida tropicalis", "result": 0.012, "unit": "µg/mL"}, {"measurement": "MIC80", "setting": "Candida parapsilosis", "result": 0.012, "unit": "µg/mL"}, {"measurement": "MIC80", "setting": "Nakaseomyces glabratus", "result": 0.2, "unit": "µg/mL"}, {"measurement": "MIC80", "setting": "Pichia kudriavzevii", "result": 0.1, "unit": "µg/mL"}, {"measurement": "MIC80", "setting": "Cryptococcus neoformans", "result": 0.025, "unit": "µg/mL"}]}
{"molecule": "CN(Cc1ccc(-c2ccc(Cl)cc2)o1)CC(O)(Cn1cncn1)c1ccc(F)cc1F", "note": "(stereo not given)", "values": [{"measurement": "MIC80", "setting": "Candida albicans [1]", "result": 0.025, "unit": "µg/mL"}, {"measurement": "MIC80", "setting": "Candida albicans [2]", "result": 0.05, "unit": "µg/mL"}, {"measurement": "MIC80", "setting": "Candida tropicalis", "result": 0.025, "unit": "µg/mL"}, {"measurement": "MIC80", "setting": "Candida parapsilosis", "result": 0.1, "unit": "µg/mL"}, {"measurement": "MIC80", "setting": "Nakaseomyces glabratus", "result": 0.4, "unit": "µg/mL"}, {"measurement": "MIC80", "setting": "Pichia kudriavzevii", "result": 0.4, "unit": "µg/mL"}, {"measurement": "MIC80", "setting": "Cryptococcus neoformans", "result": 0.4, "unit": "µg/mL"}]}
{"molecule": "CN(Cc1nc(-c2ccc(Cl)cc2)cs1)CC(O)(Cn1cncn1)c1ccc(F)cc1F", "note": "(stereo not given)", "values": [{"measurement": "MIC80", "setting": "Candida albicans [1]", "result": 0.012, "unit": "µg/mL"}, {"measurement": "MIC80", "setting": "Candida albicans [2]", "result": 0.012, "unit": "µg/mL"}, {"measurement": "MIC80", "setting": "Candida tropicalis", "result": 0.025, "unit": "µg/mL"}, {"measurement": "MIC80", "setting": "Candida parapsilosis", "result": 0.012, "unit": "µg/mL"}, {"measurement": "MIC80", "setting": "Nakaseomyces glabratus", "result": 0.4, "unit": "µg/mL"}, {"measurement": "MIC80", "setting": "Pichia kudriavzevii", "result": 0.2, "unit": "µg/mL"}, {"measurement": "MIC80", "setting": "Cryptococcus neoformans", "result": 0.8, "unit": "µg/mL"}]}
{"molecule": "CN(Cc1cnc(-c2ccc(OC(F)(F)F)cc2)s1)CC(O)(Cn1cncn1)c1ccc(F)cc1F", "note": "(stereo not given)", "values": [{"measurement": "MIC80", "setting": "Candida albicans [1]", "result": 0.025, "unit": "µg/mL"}, {"measurement": "MIC80", "setting": "Candida albicans [2]", "result": 0.025, "unit": "µg/mL"}, {"measurement": "MIC80", "setting": "Candida tropicalis", "result": 0.006, "unit": "µg/mL"}, {"measurement": "MIC80", "setting": "Candida parapsilosis", "result": 0.05, "unit": "µg/mL"}, {"measurement": "MIC80", "setting": "Nakaseomyces glabratus", "result": 0.2, "unit": "µg/mL"}, {"measurement": "MIC80", "setting": "Pichia kudriavzevii", "result": 0.1, "unit": "µg/mL"}, {"measurement": "MIC80", "setting": "Cryptococcus neoformans", "result": 0.1, "unit": "µg/mL"}]}
{"molecule": "CN(Cc1ccc(-c2ccc(C(C)(C)C)cc2)cn1)CC(O)(Cn1cncn1)c1ccc(F)cc1F", "note": "(stereo not given)", "values": [{"measurement": "MIC80", "setting": "Candida albicans [1]", "result": 0.012, "unit": "µg/mL"}, {"measurement": "MIC80", "setting": "Candida albicans [2]", "result": 0.025, "unit": "µg/mL"}, {"measurement": "MIC80", "setting": "Candida tropicalis", "result": 0.006, "unit": "µg/mL"}, {"measurement": "MIC80", "setting": "Candida parapsilosis", "result": 0.012, "unit": "µg/mL"}, {"measurement": "MIC80", "setting": "Nakaseomyces glabratus", "result": 0.2, "unit": "µg/mL"}, {"measurement": "MIC80", "setting": "Pichia kudriavzevii", "result": 0.1, "unit": "µg/mL"}, {"measurement": "MIC80", "setting": "Cryptococcus neoformans", "result": 0.012, "unit": "µg/mL"}]}
{"molecule": "OC(CN(Cc1ccc(-c2ccc(Cl)cc2)cc1)C1CC1)(Cn1cncn1)c1ccc(F)cc1F", "note": "(stereo not given)", "values": [{"measurement": "MIC80", "setting": "Candida albicans [1]", "result": "> 3.2", "unit": "µg/mL"}, {"measurement": "MIC80", "setting": "Candida albicans [2]", "result": "> 3.2", "unit": "µg/mL"}, {"measurement": "MIC80", "setting": "Candida tropicalis", "result": "> 3.2", "unit": "µg/mL"}, {"measurement": "MIC80", "setting": "Candida parapsilosis", "result": "> 3.2", "unit": "µg/mL"}, {"measurement": "MIC80", "setting": "Nakaseomyces glabratus", "result": "> 3.2", "unit": "µg/mL"}, {"measurement": "MIC80", "setting": "Pichia kudriavzevii", "result": "> 3.2", "unit": "µg/mL"}, {"measurement": "MIC80", "setting": "Cryptococcus neoformans", "result": "> 3.2", "unit": "µg/mL"}]}
{"molecule": "CN(Cc1ccc(-c2ccc(Cl)cc2)c(F)c1)CC(O)(Cn1cncn1)c1ccc(F)cc1F", "note": "(stereo not given)", "values": [{"measurement": "MIC80", "setting": "Candida albicans [1]", "result": 0.006, "unit": "µg/mL"}, {"measurement": "MIC80", "setting": "Candida albicans [2]", "result": 0.006, "unit": "µg/mL"}, {"measurement": "MIC80", "setting": "Candida tropicalis", "result": 0.006, "unit": "µg/mL"}, {"measurement": "MIC80", "setting": "Candida parapsilosis", "result": 0.006, "unit": "µg/mL"}, {"measurement": "MIC80", "setting": "Nakaseomyces glabratus", "result": 0.025, "unit": "µg/mL"}, {"measurement": "MIC80", "setting": "Pichia kudriavzevii", "result": 0.025, "unit": "µg/mL"}, {"measurement": "MIC80", "setting": "Cryptococcus neoformans", "result": 0.012, "unit": "µg/mL"}]}
